Read-outs that look alike come from different tables or passages of the source.
Target: T1, IRAK4 (Homo sapiens, UniProt Q9NWZ3)
T1 construct: Degradation of IRAK4 in OCI-LY10 was quantitatively measured using Meso Scale Discovery technology; endogenous in cells; host or cells: OCI-LY10
T1 sequence (Q9NWZ3 1-460): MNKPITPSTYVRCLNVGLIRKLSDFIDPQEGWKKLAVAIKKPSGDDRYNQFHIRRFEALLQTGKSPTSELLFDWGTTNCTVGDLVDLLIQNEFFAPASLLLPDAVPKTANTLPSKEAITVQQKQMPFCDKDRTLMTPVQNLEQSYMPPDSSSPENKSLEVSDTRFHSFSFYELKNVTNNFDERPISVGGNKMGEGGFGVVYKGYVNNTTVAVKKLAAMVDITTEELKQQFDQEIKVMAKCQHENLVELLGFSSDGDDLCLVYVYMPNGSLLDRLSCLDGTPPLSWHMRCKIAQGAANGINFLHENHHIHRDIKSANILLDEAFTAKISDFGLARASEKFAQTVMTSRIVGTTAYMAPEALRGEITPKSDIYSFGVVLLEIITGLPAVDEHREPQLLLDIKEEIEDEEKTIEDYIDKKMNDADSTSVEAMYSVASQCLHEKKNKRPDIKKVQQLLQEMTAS
Experiment: IRAK4 MSD Degradation in OCI-LY10
Type: cell-based
Settings: OCI-LY10 cells, MSD
In short: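 OCI-LY10 cells exposed to 8-point 1:3 compound series (top 1 to 10 μM) for 4 to 24 h at 37 °C, 5% CO2. Lysate IRAK4 quantified by MSD sandwich immunoassay. DC50 from three-parameter logistic fit, binned A (<0.01 μM) to D (>0.2 μM or not tested).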

[1] = 4 hrs incubation, read-out: IRAK4 degradation in OCI-LY10 at 4 hrs: DC50
[2] = 24 hrs incubation, read-out: IRAK4 degradation in OCI-LY10 at 24 hrs: DC50

SMILES	DC50 [1] [µM]	DC50 [2] [µM]
CC(C)(O)c1cc2nn([C@H]3CC[C@H](CNCCCNc4cccc5c4C(=O)N(C4CCC(=O)NC4=O)C5=O)CC3)cc2cc1NC(=O)c1cccc(C(F)(F)F)n1 (some centres unmarked) [I-146]	> 0.2	0.01 to 0.1
COc1cc2nn([C@H]3CC[C@H](CN4CCC5(CC4)CCN(c4cccc6c4n(C)c(=O)n6C4CCC(=O)NC4=O)CC5)CC3)cc2cc1NC(=O)c1cncc(OC(F)(F)F)c1 (some centres unmarked) [I-147]	0.1 to 0.2	> 0.2
COc1cc2nn([C@H]3CC[C@H](CN4CCC5(CC4)CCN(c4cccc6c4n(C)c(=O)n6C4CCC(=O)NC4=O)CC5)CC3)cc2cc1NC(=O)c1cncc(OC(F)F)c1 (some centres unmarked) [I-148]	0.01 to 0.1	> 0.2
COc1cc2nn([C@H]3CC[C@H](CN4CCC5(CC4)CCN(c4cccc6c4n(C)c(=O)n6C4CCC(=O)NC4=O)CC5)CC3)cc2cc1NC(=O)c1cncc(SC)c1 (some centres unmarked) [I-149]	< 0.01	> 0.2
COc1cc2nn([C@H]3CC[C@H](CN4CCC5(CC4)CCN(c4cccc6c4n(C)c(=O)n6C4CCC(=O)NC4=O)CC5)CC3)cc2cc1NC(=O)c1cncc([S+](C)[O-])c1 (some centres unmarked) [I-150]	0.01 to 0.1	> 0.2
COc1cc2nn([C@H]3CC[C@H](CN4CCC5(CC4)CCN(c4cccc6c4n(C)c(=O)n6C4CCC(=O)NC4=O)CC5)CC3)cc2cc1NC(=O)c1cncc(S(C)(=O)=O)c1 (some centres unmarked) [I-151]	> 0.2	> 0.2
COc1cc2nn([C@H]3CC[C@H](CN4CCC5(CC4)CCN(c4cccc6c4n(C)c(=O)n6C4CCC(=O)NC4=O)CC5)CC3)cc2cc1NC(=O)c1cncc(SC(F)(F)F)c1 (some centres unmarked) [I-152]	> 0.2	> 0.2
COc1cc2nn([C@H]3CC[C@H](CN4CCC5(CC4)CCN(c4cccc6c4n(C)c(=O)n6C4CCC(=O)NC4=O)CC5)CC3)cc2cc1NC(=O)c1cncc([S+]([O-])C(F)(F)F)c1 (some centres unmarked) [I-153]	> 0.2	> 0.2
COc1cc2nn([C@H]3CC[C@H](CN4CCC5(CC4)CCN(c4cccc6c4n(C)c(=O)n6C4CCC(=O)NC4=O)CC5)CC3)cc2cc1NC(=O)c1cncc(S(=O)(=O)C(F)(F)F)c1 (some centres unmarked) [I-154]	> 0.2	> 0.2
COc1cc2nn([C@H]3CC[C@H](CN4CCC5(CC4)CCN(c4cccc6c4n(C)c(=O)n6C4CCC(=O)NC4=O)CC5)CC3)cc2cc1NC(=O)c1cncc(C(F)(F)F)n1 (some centres unmarked) [I-155]	< 0.01	> 0.2
COc1cc2nn([C@H]3CC[C@H](CN4CCC5(CC4)CCN(c4cccc6c4n(C)c(=O)n6C4CCC(=O)NC4=O)CC5)CC3)cc2cc1NC(=O)c1cncc(C#N)c1 (some centres unmarked) [I-156]	> 0.2	0.01 to 0.1
COc1cc2nn([C@H]3CC[C@H](CN4CCC5(CC4)CCN(c4cccc6c4n(C)c(=O)n6C4CCC(=O)NC4=O)CC5)CC3)cc2cc1NC(=O)c1nn(C)cc1Cl (some centres unmarked) [I-157]	< 0.01	> 0.2
Cn1c(=O)n(C2CCC(=O)NC2=O)c2cccc(N3CCC(CN4CCN(C[C@H]5CC[C@H](n6cc(NC(=O)c7cnn8ccc(N9C[C@@H]%10C[C@H]9CO%10)nc78)c(C(F)F)n6)CC5)CC4)CC3)c21 (some centres unmarked) [I-158]	< 0.01	> 0.2
Cn1c(=O)n(C2CCC(=O)NC2=O)c2cccc(N3CCC(OC4CCN(C[C@H]5CC[C@H](n6cc(NC(=O)c7cnn8ccc(N9C[C@@H]%10C[C@H]9CO%10)nc78)c(C(F)F)n6)CC5)CC4)CC3)c21 (some centres unmarked) [I-159]	< 0.01	> 0.2
Cn1c(=O)n(C2CCC(=O)NC2=O)c2cccc(C#CCCC3CCN(CC4CCC(n5cc(NC(=O)c6cnn7ccc(C8C[C@H]9C[C@@H]8CO9)nc67)c(C(F)F)n5)CC4)CC3)c21 (some centres unmarked) [I-160]	< 0.01	< 0.01
Cn1c(=O)n(C2CCC(=O)NC2=O)c2cccc(N3CCN(CC4CCN(C[C@H]5CC[C@H](n6cc(NC(=O)c7cnn8ccc(N9C[C@@H]%10C[C@H]9CO%10)nc78)c(C(F)F)n6)CC5)CC4)CC3)c21 (some centres unmarked) [I-161]	< 0.01	> 0.2
Cn1c(=O)n(C2CCC(=O)NC2=O)c2cccc(C#CCCN3CCN(CC4CCC(n5cc(NC(=O)c6cnn7ccc(C8C[C@H]9C[C@@H]8CO9)nc67)c(C(F)F)n5)CC4)CC3)c21 (some centres unmarked) [I-162]	< 0.01	> 0.2
Cn1c(=O)n(C2CCC(=O)NC2=O)c2cccc(N3CCN(CC4CCN(C[C@H]5CC[C@H](n6cc(NC(=O)c7cnn8ccc(N9C[C@H]%10C[C@@H]9CO%10)nc78)c(C(F)F)n6)CC5)CC4)CC3)c21 (some centres unmarked) [I-163]	< 0.01	> 0.2
Cn1c(=O)n(C2CCC(=O)NC2=O)c2cccc(N3CCC(CN4CCN(C[C@H]5CC[C@H](n6cc(NC(=O)c7cnn8ccc(N9C[C@H]%10C[C@@H]9CO%10)nc78)c(C(F)F)n6)CC5)CC4)CC3)c21 (some centres unmarked) [I-164]	< 0.01	> 0.2

SMILES	DC50 [1] [µM]	DC50 [2] [µM]
Cn1c(=O)n(C2CCC(=O)NC2=O)c2cccc(N3CCC(OC4CCN(C[C@H]5CC[C@H](n6cc(NC(=O)c7cnn8ccc(N9C[C@H]%10C[C@@H]9CO%10)nc78)c(C(F)F)n6)CC5)CC4)CC3)c21 (some centres unmarked) [I-165]	< 0.01	> 0.2
Cn1c(=O)n(C2CCC(=O)NC2=O)c2cccc(C#CCOC3CCN(C[C@H]4CC[C@H](n5cc(NC(=O)c6cnn7ccc(N8C[C@H]9C[C@@H]8CO9)nc67)c(C(F)(F)F)n5)CC4)CC3)c21 (some centres unmarked) [I-166]	0.01 to 0.1	> 0.2
Cn1c(=O)n(C2CCC(=O)NC2=O)c2cccc(C#CCOC3CCN(C[C@H]4CC[C@H](n5cc(NC(=O)c6cnn7ccc(N8C[C@H]9C[C@@H]8CO9)nc67)c(Cl)n5)CC4)CC3)c21 (some centres unmarked) [I-167]	> 0.2	0.01 to 0.1
Cc1nn([C@H]2CC[C@H](CN3CCC(OCC#Cc4cccc5c4n(C)c(=O)n5C4CCC(=O)NC4=O)CC3)CC2)cc1NC(=O)c1cnn2ccc(N3C[C@H]4C[C@@H]3CO4)nc12 (some centres unmarked) [I-168]	> 0.2	> 0.2
COc1nn([C@H]2CC[C@H](CN3CCC(OCC#Cc4cccc5c4n(C)c(=O)n5C4CCC(=O)NC4=O)CC3)CC2)cc1NC(=O)c1cnn2ccc(N3C[C@H]4C[C@@H]3CO4)nc12 (some centres unmarked) [I-169]	> 0.2	> 0.2
Cc1ccc(-c2nn([C@H]3CC[C@H](CN4CCC(OCC#Cc5cccc6c5n(C)c(=O)n6C5CCC(=O)NC5=O)CC4)CC3)cc2NC(=O)c2cnn3cccnc23)nc1 (some centres unmarked) [I-170]	> 0.2	0.01 to 0.1
Cc1ccc(-c2nn([C@H]3CC[C@H](CN4CCC(OCC#Cc5cccc6c5n(C)c(=O)n6C5CCC(=O)NC5=O)CC4)CC3)cc2NC(=O)c2cnn3cccnc23)c(F)c1 (some centres unmarked) [I-171]	> 0.2	0.01 to 0.1
Cc1ccc(-c2nn([C@H]3CC[C@H](CN4CCC(OCC#Cc5cccc6c5n(C)c(=O)n6C5CCC(=O)NC5=O)CC4)CC3)cc2NC(=O)c2cnn3cccnc23)cc1 (some centres unmarked) [I-172]	> 0.2	0.01 to 0.1
Cc1ccc(-c2nn([C@H]3CC[C@H](CN4CCC(OCC#Cc5cccc6c5n(C)c(=O)n6C5CCC(=O)NC5=O)CC4)CC3)cc2NC(=O)c2cnn3cccnc23)nc1 (some centres unmarked) [I-173]	> 0.2	0.01 to 0.1
Cn1c(=O)n(C2CCC(=O)NC2=O)c2cccc(C#CCOC3CCN(C[C@H]4CC[C@H](n5cc(NC(=O)c6cnn7ccc(N8C[C@H]9C[C@@H]8CO9)nc67)c(C(C)(C)O)n5)CC4)CC3)c21 (some centres unmarked) [I-174]	> 0.2	> 0.2
Cn1c(=O)n(C2CCC(=O)NC2=O)c2cccc(C#CCOC3CCN(C[C@H]4CC[C@H](c5ccc(C(F)F)c(NC(=O)c6cnn7ccc(N8C[C@H]9C[C@@H]8CO9)nc67)c5)CC4)CC3)c21 (some centres unmarked) [I-175]	> 0.2	> 0.2
Cn1c(=O)n(C2CCC(=O)NC2=O)c2cccc(C#CCOC3CCN(CC4CCN(c5ccc(C(F)F)c(NC(=O)c6cnn7ccc(N8C[C@H]9C[C@@H]8CO9)nc67)c5)CC4)CC3)c21 (some centres unmarked) [I-176]	> 0.2	> 0.2
COc1ccc([C@H]2CC[C@H](CN3CCC(OCC#Cc4cccc5c4n(C)c(=O)n5C4CCC(=O)NC4=O)CC3)CC2)cc1NC(=O)c1cnn2ccc(N3C[C@H]4C[C@@H]3CO4)nc12 (some centres unmarked) [I-177]	> 0.2	> 0.2
Cn1c(=O)n(C2CCC(=O)NC2=O)c2cccc(C#CCOC3CCN(C[C@H]4CC[C@H](c5cnc(C(F)F)c(NC(=O)c6cnn7ccc(N8C[C@H]9C[C@@H]8CO9)nc67)c5)CC4)CC3)c21 (some centres unmarked) [I-178]	> 0.2	> 0.2
Cn1c(=O)n(C2CCC(=O)NC2=O)c2cccc(C#CCOC3CCN(CC4CCN(c5cnc(C(F)F)c(NC(=O)c6cnn7ccc(N8C[C@H]9C[C@@H]8CO9)nc67)c5)CC4)CC3)c21 (some centres unmarked) [I-179]	> 0.2	> 0.2
COc1ncc([C@H]2CC[C@H](CN3CCC(OCC#Cc4cccc5c4n(C)c(=O)n5C4CCC(=O)NC4=O)CC3)CC2)cc1NC(=O)c1cnn2ccc(N3C[C@H]4C[C@@H]3CO4)nc12 (some centres unmarked) [I-180]	> 0.2	> 0.2
Cn1c(=O)n(C2CCC(=O)NC2=O)c2cccc(C#CCOC3CCN(C[C@H]4CC[C@H](c5ccc(NC(=O)c6cnn7ccc(N8C[C@H]9C[C@@H]8CO9)nc67)c(C(F)F)n5)CC4)CC3)c21 (some centres unmarked) [I-181]	> 0.2	> 0.2
Cn1c(=O)n(C2CCC(=O)NC2=O)c2cccc(C#CCOC3CCN(C[C@H]4CC[C@H](c5ccc(NC(=O)c6cnn7ccc(N8C[C@H]9C[C@@H]8CO9)nc67)c(C(F)F)c5)CC4)CC3)c21 (some centres unmarked) [I-182]	> 0.2	> 0.2
